Results taken from PubChem BioAssay (NCI).
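Each compound was tested at five concentrations against cells in 96-well plates for 48 hours. TGI denotes the concentration required for complete inhibition of growth.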

Key:
Experiment in all cases: NCI tumour cell line growth inhibition, 48 h
SNB-78 CNS = system: SNB-78 CNS
DMS 114 small cell lung = system: DMS 114 small cell lung
SK-MEL-5 melanoma = system: SK-MEL-5 melanoma
SF-295 CNS = system: SF-295 CNS
A549 NSCLC = system: A549 NSCLC
OVCAR-8 ovarian = system: OVCAR-8 ovarian
HOP-62 NSCLC = system: HOP-62 NSCLC
MOLT-4 leukemia = system: MOLT-4 leukemia
MALME-3M melanoma = system: MALME-3M melanoma
COLO 205 colon = system: COLO 205 colon
SK-MEL-2 melanoma = system: SK-MEL-2 melanoma
SN12C renal = system: SN12C renal
K-562 leukemia = system: K-562 leukemia
DMS 273 small cell lung = system: DMS 273 small cell lung
XF 498 CNS = system: XF 498 CNS
HL-60(TB) leukemia = system: HL-60(TB) leukemia
UO-31 renal = system: UO-31 renal
HCT-116 colon = system: HCT-116 colon
SNB-19 CNS = system: SNB-19 CNS
SK-MEL-28 melanoma = system: SK-MEL-28 melanoma
HT29 colon = system: HT29 colon
DLD-1 colon = system: DLD-1 colon
SR leukemia = system: SR leukemia
SK-OV-3 ovarian = system: SK-OV-3 ovarian
NCI-H23 lung = system: NCI-H23 lung
M19-MEL melanoma = system: M19-MEL melanoma
CCRF-CEM leukemia = system: CCRF-CEM leukemia
M14 melanoma = system: M14 melanoma
EKVX NSCLC = system: EKVX NSCLC
CAKI-1 renal = system: CAKI-1 renal
SNB-75 CNS = system: SNB-75 CNS
IGROV1 ovarian = system: IGROV1 ovarian
SW-620 colon = system: SW-620 colon
LXFL 529 NSCLC = system: LXFL 529 NSCLC
UACC-62 melanoma = system: UACC-62 melanoma
SF-539 CNS = system: SF-539 CNS
HOP-92 NSCLC = system: HOP-92 NSCLC
KM12 colon = system: KM12 colon
SF-268 CNS = system: SF-268 CNS
OVCAR-4 ovarian = system: OVCAR-4 ovarian
TK-10 renal = system: TK-10 renal
UACC-257 melanoma = system: UACC-257 melanoma
A498 renal = system: A498 renal
RPMI-8226 leukemia = system: RPMI-8226 leukemia
LOX IMVI melanoma = system: LOX IMVI melanoma
NCI-H226 lung = system: NCI-H226 lung
NCI-H522 lung = system: NCI-H522 lung
786-0 renal = system: 786-0 renal
HCC-2998 colon = system: HCC-2998 colon
OVCAR-3 ovarian = system: OVCAR-3 ovarian

O=S1(=O)OCCOS(=O)(=O)C1(I)I
TGI (SNB-78 CNS): 86.4 µM | TGI (DMS 114 small cell lung): 43.9 µM | TGI (SK-MEL-5 melanoma): 30 µM | TGI (SF-295 CNS): 90.8 µM | TGI (A549 NSCLC): 71.1 µM | TGI (OVCAR-8 ovarian): 59.5 µM | TGI (HOP-62 NSCLC): 38.9 µM | TGI (MOLT-4 leukemia): 56.9 µM | TGI (MALME-3M melanoma): 37.6 µM | TGI (COLO 205 colon): 37.8 µM | TGI (SK-MEL-2 melanoma): 39.5 µM | TGI (SN12C renal): 38.2 µM | TGI (K-562 leukemia): 74.6 µM | TGI (DMS 273 small cell lung): 47.3 µM | TGI (XF 498 CNS): 37.5 µM | TGI (HL-60(TB) leukemia): 68.3 µM | TGI (UO-31 renal): 33.3 µM | TGI (HCT-116 colon): 29.9 µM | TGI (SNB-19 CNS): 55.3 µM | TGI (SK-MEL-28 melanoma): 55.2 µM | TGI (HT29 colon): 69.4 µM | TGI (DLD-1 colon): 35.8 µM | TGI (SR leukemia): 49.1 µM | TGI (SK-OV-3 ovarian): 47.2 µM | TGI (NCI-H23 lung): 27.9 µM | TGI (M19-MEL melanoma): 53.8 µM | TGI (CCRF-CEM leukemia): 35.6 µM | TGI (M14 melanoma): 50.7 µM | TGI (EKVX NSCLC): 59 µM | TGI (CAKI-1 renal): 35.7 µM | TGI (SNB-75 CNS): 48.7 µM | TGI (IGROV1 ovarian): 63.8 µM | TGI (SW-620 colon): 39.3 µM | TGI (LXFL 529 NSCLC): 27.3 µM | TGI (UACC-62 melanoma): 30.3 µM | TGI (SF-539 CNS): 40.1 µM | TGI (HOP-92 NSCLC): 29.8 µM | TGI (KM12 colon): 40.8 µM | TGI (SF-268 CNS): 74.7 µM | TGI (OVCAR-4 ovarian): 48.9 µM | TGI (TK-10 renal): 70.3 µM | TGI (UACC-257 melanoma): 46.3 µM | TGI (A498 renal): 30.3 µM | TGI (RPMI-8226 leukemia): 36.8 µM | TGI (LOX IMVI melanoma): 30.5 µM | TGI (NCI-H226 lung): 29.7 µM | TGI (NCI-H522 lung): 45.2 µM | TGI (786-0 renal): 35 µM | TGI (HCC-2998 colon): 35.2 µM | TGI (OVCAR-3 ovarian): 73.8 µM
